Measured values: the supplement of paper PMC10307832

Columns and labels:
Assay in all cases: relative viability (nuclei count vs DMSO), 5 days (fraction); higher = more cells survive
201T = test system: 201T
Outline: (§1)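 Lung cancer cell lines in 1536-well plates got either a single drug or a fixed anchor-drug dose together with five library-drug doses (not always all listed) in √10 steps, by pin tool, on the day after seeding. Nuclei were counted after 5 days, and relative viability is the treated-to-vehicle ratio of nuclei counts. Values are medians of duplicate plates.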

A-427 = test system: A-427
Outline: as §1

COR-L23 = test system: COR-L23
Outline: as §1

H3255 = test system: H3255
Outline: as §1

LCLC-103H = test system: LCLC-103H
Outline: as §1

LCLC-97TM1 = test system: LCLC-97TM1
Outline: as §1

LK-2 = test system: LK-2
Outline: as §1

LU99A = test system: LU99A
Outline: as §1

NCI-H1563 = test system: NCI-H1563
Outline: as §1

NCI-H1650 = test system: NCI-H1650
Outline: as §1

NCI-H1651 = test system: NCI-H1651
Outline: as §1

NCI-H1944 = test system: NCI-H1944
Outline: as §1

NCI-H2347 = test system: NCI-H2347
Outline: as §1

NCI-H23 = test system: NCI-H23
Outline: as §1

NCI-H460 = test system: NCI-H460
Outline: as §1

NCI-H650 = test system: NCI-H650
Outline: as §1

NCI-H727 = test system: NCI-H727
Outline: as §1

NCI-H838 = test system: NCI-H838
Outline: as §1

PC-14 = test system: PC-14
Outline: as §1

PC-3 [JPC-3] = test system: PC-3 [JPC-3]
Outline: as §1

RERF-LC-KJ = test system: RERF-LC-KJ
Outline: as §1

SW 1573 = test system: SW 1573
Outline: as §1

Q: What does the source list for CC(C)Oc1cc(Nc2nc(N[C@@H](C)c3ccc(F)cn3)ncc2Cl)n[nH]1 [AZ23] + C[C@@H](Oc1cc(-c2cnn(C3CCNCC3)c2)cnc1N)c1c(Cl)ccc(F)c1Cl [Crizotinib] (partner 1 µM)?
A: relative viability (201T; first compound 0.01 µM): 1.06; relative viability (201T; first compound 0.03162 µM): 1.05; relative viability (201T; first compound 0.3162 µM): 1.01; relative viability (A-427; first compound 0.01 µM): 0.942; relative viability (A-427; first compound 0.03162 µM): 0.951; relative viability (A-427; first compound 0.3162 µM): 0.754; relative viability (COR-L23; first compound 0.01 µM): 0.763; relative viability (COR-L23; first compound 0.03162 µM): 0.828; relative viability (COR-L23; first compound 0.3162 µM): 0.766; relative viability (H3255; first compound 0.01 µM): 0.981; relative viability (H3255; first compound 0.03162 µM): 1.18; relative viability (H3255; first compound 0.3162 µM): 1.01; relative viability (LCLC-103H; first compound 0.01 µM): 1.13; relative viability (LCLC-103H; first compound 0.03162 µM): 1.13; relative viability (LCLC-103H; first compound 0.3162 µM): 1.13; relative viability (LCLC-97TM1; first compound 0.01 µM): 0.424; relative viability (LCLC-97TM1; first compound 0.03162 µM): 0.527; relative viability (LCLC-97TM1; first compound 0.3162 µM): 0.305; relative viability (LK-2; first compound 0.03162 µM): 0.223; relative viability (LK-2; first compound 0.3162 µM): 0.216; relative viability (LU99A; first compound 0.01 µM): 0.617; relative viability (LU99A; first compound 0.03162 µM): 0.563; relative viability (LU99A; first compound 0.3162 µM): 0.6; relative viability (NCI-H1563; first compound 0.01 µM): 0.837; relative viability (NCI-H1563; first compound 0.03162 µM): 0.912; relative viability (NCI-H1563; first compound 0.3162 µM): 0.865; relative viability (NCI-H1650; first compound 0.01 µM): 0.863; relative viability (NCI-H1650; first compound 0.03162 µM): 1.4; relative viability (NCI-H1650; first compound 0.3162 µM): 0.984; relative viability (NCI-H1651; first compound 0.01 µM): 0.94; relative viability (NCI-H1651; first compound 0.03162 µM): 0.97; relative viability (NCI-H1651; first compound 0.3162 µM): 0.875; relative viability (NCI-H1944; first compound 0.01 µM): 1.11; relative viability (NCI-H1944; first compound 0.03162 µM): 1.18; relative viability (NCI-H1944; first compound 0.3162 µM): 1.17; relative viability (NCI-H2347; first compound 0.01 µM): 0.736; relative viability (NCI-H2347; first compound 0.03162 µM): 0.861; relative viability (NCI-H2347; first compound 0.3162 µM): 0.654; relative viability (NCI-H23; first compound 0.03162 µM): 0.617; relative viability (NCI-H23; first compound 0.3162 µM): 0.539; relative viability (NCI-H460; first compound 0.01 µM): 0.827; relative viability (NCI-H460; first compound 0.03162 µM): 1.04; relative viability (NCI-H460; first compound 0.3162 µM): 0.834; relative viability (NCI-H650; first compound 0.01 µM): 0.866; relative viability (NCI-H650; first compound 0.03162 µM): 0.813; relative viability (NCI-H650; first compound 0.3162 µM): 0.847; relative viability (NCI-H727; first compound 0.01 µM): 1.01; relative viability (NCI-H727; first compound 0.03162 µM): 1.14; relative viability (NCI-H727; first compound 0.3162 µM): 0.648; relative viability (NCI-H838; first compound 0.01 µM): 0.702; relative viability (NCI-H838; first compound 0.03162 µM): 0.889; relative viability (NCI-H838; first compound 0.3162 µM): 0.803; relative viability (PC-14; first compound 0.01 µM): 0.896; relative viability (PC-14; first compound 0.03162 µM): 1.21; relative viability (PC-14; first compound 0.3162 µM): 0.89; relative viability (PC-3 [JPC-3]; first compound 0.01 µM): 1.3; relative viability (PC-3 [JPC-3]; first compound 0.03162 µM): 1.07; relative viability (PC-3 [JPC-3]; first compound 0.3162 µM): 0.91; relative viability (RERF-LC-KJ; first compound 0.01 µM): 1; relative viability (RERF-LC-KJ; first compound 0.03162 µM): 1; relative viability (RERF-LC-KJ; first compound 0.3162 µM): 0.915; relative viability (SW 1573; first compound 0.01 µM): 0.915; relative viability (SW 1573; first compound 0.03162 µM): 0.997; relative viability (SW 1573; first compound 0.3162 µM): 0.727
